According to paper PMC4252796 (Molecular and biochemical parasitology, 2014):

The molecules below were run against T1, LmjPEM1 (Leishmania major, UniProt Q4Q5U4) (assay: radiometric PEMT assay, 3H-SAM incorporation into total lipids, yeast extract). Details: endogenous yeast PE as substrate; 0.1 M TrisHCl pH 7.5, 30°C, 50 min.
T1 sequence (Q4Q5U4 1-582): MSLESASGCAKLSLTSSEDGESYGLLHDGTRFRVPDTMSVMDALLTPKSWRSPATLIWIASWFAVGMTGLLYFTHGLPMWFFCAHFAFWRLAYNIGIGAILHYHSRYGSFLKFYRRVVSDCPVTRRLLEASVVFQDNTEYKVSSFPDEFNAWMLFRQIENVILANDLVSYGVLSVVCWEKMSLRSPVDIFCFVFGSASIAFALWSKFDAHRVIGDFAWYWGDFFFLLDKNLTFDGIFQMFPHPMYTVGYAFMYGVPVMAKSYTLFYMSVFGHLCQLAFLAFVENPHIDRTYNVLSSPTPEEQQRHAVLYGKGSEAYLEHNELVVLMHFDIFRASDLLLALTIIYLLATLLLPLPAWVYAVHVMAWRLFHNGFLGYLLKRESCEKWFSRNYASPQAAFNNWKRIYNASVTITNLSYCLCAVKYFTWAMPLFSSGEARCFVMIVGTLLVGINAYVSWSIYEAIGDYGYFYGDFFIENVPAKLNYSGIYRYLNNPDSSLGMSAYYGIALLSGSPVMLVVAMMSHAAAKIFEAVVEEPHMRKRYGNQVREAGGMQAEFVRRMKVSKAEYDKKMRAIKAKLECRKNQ
Type: biochemical

Row | Compound | % activity at 10 or 100 μM
1 | CCCCCCCCCCCCCCCCOP(=O)([O-])OCC[N+](C)(C)C [compound 5, miltefosine] | followed by miltefosine, octadecyltrimethylammonium bromide, and octadecylphosphocholine
2 | CCCCCCCCCCCCCCCC[N+](C)(C)C [compound 2, hexadecyltrimethylammonium bromide] | LmjPEM1 activity was best inhibited by hexadecyltrimethylammonium bromide
3 | CCCCCCCCCCCCCCCCCC[N+](C)(C)C [compound 1, octadecyltrimethylammonium bromide] | followed by miltefosine, octadecyltrimethylammonium bromide, and octadecylphosphocholine
4 | CCCCCCCCCCCCCCCCCCOP(=O)([O-])OCC[N+](C)(C)C [compound 6, octadecylphosphocholine] | followed by miltefosine, octadecyltrimethylammonium bromide, and octadecylphosphocholine
5 | C[N+](C)(C)CCO [compound 3, choline] | while choline had a very small effect
